In patent US12344603B2 (Genentech, Inc., priority 2020, dated 2025):
pIC50: −log10 of the molar value. Structures can show the parent of a compound that is named as a salt.

Target: IRE1α (Homo sapiens (Human), UniProt O75460, D688N)
Test: IRE1α TR-FRET competition binding assay (IRE1α HTRF)
Settings: TR-FRET competition binding to kinase domain of IRE1α
How it was run: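 Competition of compounds against an Alexa fluor 647 ATP-site probe (2 nM final) for the His-tagged kinase domain (0.25 nM final), detected via 2 nM Eu anti-His antibody by TR-FRET, 665 and 615 nm emission. Protein–antibody premix 1 h, 4° C; reaction 1 h, room temperature, pH 7.5 HEPES buffer.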

Chain of IRE1α (O75460 547-977 D688N): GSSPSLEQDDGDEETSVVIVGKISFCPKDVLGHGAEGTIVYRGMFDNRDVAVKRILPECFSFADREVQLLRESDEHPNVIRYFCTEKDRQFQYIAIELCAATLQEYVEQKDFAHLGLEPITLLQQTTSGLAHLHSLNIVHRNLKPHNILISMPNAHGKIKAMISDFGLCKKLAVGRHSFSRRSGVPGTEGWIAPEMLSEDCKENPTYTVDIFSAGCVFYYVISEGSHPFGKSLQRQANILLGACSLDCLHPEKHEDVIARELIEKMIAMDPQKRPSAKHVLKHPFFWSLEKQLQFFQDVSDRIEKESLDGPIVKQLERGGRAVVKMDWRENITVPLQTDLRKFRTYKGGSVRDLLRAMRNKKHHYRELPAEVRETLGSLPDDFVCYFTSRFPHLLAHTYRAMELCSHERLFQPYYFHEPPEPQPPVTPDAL

CC(C)n1c(=O)c(-c2ccc(NS(=O)(=O)Cc3ccccc3)c(F)c2)nc2cnc(N[C@H]3CC[C@H](N(C)CCF)CC3)nc21 [Compound 183, N-(2-fluoro-4-(2-(((1r,4r)-4-((2-fluoroethyl)(methyl)amino)cyclohexyl)amino)-8-isopropyl-7-oxo-7,8-dihydropteridin-6-yl)phenyl)-1-phenylmethanesulfonamide] was tested. Which pIC50 did it give?
Its pIC50 is 9.92.

With CC(C)n1c(=O)c(-c2ccc(NS(=O)(=O)Cc3ccccc3)c(F)c2)nc2cnc(N[C@@H]3CC[C@@H](N(C)C)[C@H](F)C3)nc21 (stereo in doubt) [Compound 192B, N-(4-(2-((4-(Dimethylamino)-3-fluorocyclohexyl)amino)-8-isopropyl-7-oxo-7,8-dihydropteridin-6-yl)-2-fluorophenyl)-1-phenylmethanesulfonamide] as the compound, how does the pIC50 read?
Its pIC50 is 10.05.

How did the pIC50 turn out when CC(C)n1c(=O)c(-c2cc(F)c(NS(=O)(=O)Cc3ccccc3)c(F)c2F)cc2cnc(N[C@@H]3CNC[C@@H](F)C3)nc21 [Compound 26, 1-Phenyl-N-(2,3,6-trifluoro-4-(2-(((3S,5S)-5-fluoropiperidin-3-yl)amino)-8-isopropyl-7-oxo-7,8-dihydropyrido[2,3-d]pyrimidin-6-yl)phenyl)methanesulfonamide] was run?
Its pIC50 is 9.72.

How did the pIC50 turn out when CC(C)n1c(=O)c(-c2cc(F)c(NS(=O)(=O)CCC(F)(F)F)c(F)c2)nc2cnc(N[C@H]3CC[C@H](N(C)C)CC3)nc21 [Example 239, N-[4-[2-[[4-(Dimethylamino)cyclohexyl]amino]-8-isopropyl-7-oxo-pteridin-6-yl]-2,6-difluoro-phenyl]-3,3,3-trifluoro-propane-1-sulfonamide] was run?
The pIC50 was 9.70.

With CC(C)n1c(=O)c(-c2ccc(NS(=O)(=O)CCC(F)(F)F)c(F)c2)cc2cnc(NC3CCC(N(C)C)C(F)C3)nc21 (racemic) [Compound 154, N-(4-(2-((4-(Dimethylamino)-3-fluorocyclohexyl)amino)-8-isopropyl-7-oxo-7,8-dihydropyrido[2,3-d]pyrimidin-6-yl)-2-fluorophenyl)-3,3,3-trifluoropropane-1-sulfonamide hydrochloride] as the compound, how does the pIC50 (hydrochloride) read?
The pIC50 was 9.89.

How did the pIC50 turn out when CC(C)n1c(=O)c(-c2ccc(NS(=O)(=O)CC3CCC(F)(F)CC3)c(F)c2)nc2cnc(N[C@H]3CC[C@H](N(C)C)CC3)nc21 [Example 271, 1-(4,4-Difluorocyclohexyl)-N-[4-[2-[[4-(dimethylamino)cyclohexyl]amino]-8-isopropyl-7-oxo-pteridin-6-yl]-2-fluoro-phenyl]methanesulfonamide] was run?
Its pIC50 is 9.70.

CC(C)n1c(=O)c(-c2ccc(NS(=O)(=O)CCC(F)(F)F)cn2)cc2cnc(N[C@H]3CC[C@H](N(C)C)CC3)nc21 [Example 218, N-(6-(2-(((1r,4r)-4-(dimethylamino)cyclo-hexyl)amino)-8-isopropyl-7-oxo-7,8-dihydropyrido[2,3-d]-pyrimidin-6-yl)pyridin-3-yl)-3,3,3-trifluoro-propane-1-sulfonamide] was tested. Which pIC50 did it give?
Its pIC50 is 9.70.

CC(C)n1c(=O)c(-c2ccc(NS(=O)(=O)Cc3ccccc3F)nc2)nc2cnc(N[C@@H]3CNC[C@@H](F)C3)nc21 [Example 237, 1-(2-Fluorophenyl)-N-[5-[2-[[(3S,5S)-5-fluoro-3-piperidyl]amino]-8-isopropyl-7-oxo-pteridin-6-yl]-2-pyridyl]methanesulfonamide] was tested. Which pIC50 did it give?
The pIC50 was 9.52.

How did the pIC50 turn out when CCn1c(=O)c(-c2cc(F)c(NS(=O)(=O)Cc3ccc(C(F)(F)F)cc3)c(F)c2F)cc2cnc(N[C@@H]3CNC[C@@H](F)C3)nc21 [Compound 50, N-(4-(8-ethyl-2-(((3S,5S)-5-fluoropiperidin-3-yl)amino)-7-oxo-7,8-dihydropyrido[2,3-d]pyrimidin-6-yl)-2,3,6-trifluorophenyl)-1-(4-(trifluoromethyl)phenyl)methanesulfonamide hydrochloride] was run?
The pIC50 was 9.66.

How did the pIC50 turn out when CC(C)n1c(=O)c(-c2ccc(NS(=O)(=O)CCC3CC3(F)F)c(F)c2)nc2cnc(N[C@H]3CC[C@H](N(C)C)CC3)nc21 (stereo partly shown) [Example 259, 2-(2,2-Difluorocyclopropyl)-N-[4-[2-[[4-(dimethylamino)cyclohexyl]amino]-8-isopropyl-7-oxo-pteridin-6-yl]-2-fluoro-phenyl]ethanesulfonamide] was run?
The pIC50 was 9.70.
